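Cultured in 96-well plates, cells were exposed to test compound for 48 hours across five concentrations. Abbreviation: GI50, concentration required for 50% inhibition of growth. The concentration for full growth arrest is given as TGI.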
How the values were obtained:
Assay in all cases: NCI anticancer screen, dose series, 48 h
UACC-62 melanoma = test system: UACC-62 melanoma
A549 NSCLC = test system: A549 NSCLC
DLD-1 colon = test system: DLD-1 colon
SK-MEL-28 melanoma = test system: SK-MEL-28 melanoma
CCRF-CEM leukemia = test system: CCRF-CEM leukemia
DMS 273 small cell lung = test system: DMS 273 small cell lung
SF-268 CNS = test system: SF-268 CNS
DMS 114 small cell lung = test system: DMS 114 small cell lung
CAKI-1 renal = test system: CAKI-1 renal
HT29 colon = test system: HT29 colon
HS 578T breast = test system: HS 578T breast

## COC(=O)C1(C)CCc2c(OC)ccc(OC)c2C1=O (stereo not given)
UACC-62 melanoma
  TGI: > 100 µM
A549 NSCLC
  TGI: > 100 µM
DLD-1 colon
  TGI: > 100 µM
SK-MEL-28 melanoma
  TGI: > 100 µM
CCRF-CEM leukemia
  TGI: > 100 µM
DMS 273 small cell lung
  TGI: > 100 µM
SF-268 CNS
  TGI: > 100 µM
DMS 114 small cell lung
  TGI: > 100 µM

## COc1cc2c(c(OC)c1OC)-c1ccc(SC)c(=O)cc1C(NC(=O)c1ccccc1)CC2 (stereo not given)
UACC-62 melanoma
  TGI: 36.7 µM
CAKI-1 renal
  TGI: 48.5 µM
HT29 colon
  TGI: 1.12 µM
A549 NSCLC
  TGI: 65.9 µM
DLD-1 colon
  TGI: > 100 µM
HS 578T breast
  TGI: 5.34 µM
SK-MEL-28 melanoma
  TGI: > 63.1 µM
CCRF-CEM leukemia
  TGI: > 68.1 µM
DMS 273 small cell lung
  TGI: > 40.6 µM
SF-268 CNS
  TGI: 53.3 µM

## O=C1CC(c2c[nH]c3ccccc23)C(=O)N1 (stereo not given)
UACC-62 melanoma
  TGI: > 100 µM
CAKI-1 renal
  TGI: > 100 µM
HT29 colon
  TGI: > 100 µM
A549 NSCLC
  TGI: > 100 µM
DLD-1 colon
  TGI: > 100 µM
SK-MEL-28 melanoma
  TGI: > 100 µM
CCRF-CEM leukemia
  TGI: > 100 µM
DMS 273 small cell lung
  TGI: > 100 µM

## Clc1ccc(Nc2nc3ccccc3nc2-c2cccs2)cc1Cl
UACC-62 melanoma
  TGI: > 100 µM
HT29 colon
  TGI: > 100 µM
A549 NSCLC
  TGI: > 100 µM
DLD-1 colon
  TGI: > 100 µM
SK-MEL-28 melanoma
  TGI: > 100 µM
CCRF-CEM leukemia
  TGI: > 100 µM
DMS 273 small cell lung
  TGI: > 100 µM
SF-268 CNS
  TGI: > 100 µM

## Cc1c(/C=N/N=C/c2[nH]c(C(=O)OC(C)(C)C)c(C)c2C)[nH]c(C(=O)OC(C)(C)C)c1C
UACC-62 melanoma
  TGI: > 100 µM
CAKI-1 renal
  TGI: > 100 µM
HT29 colon
  TGI: > 100 µM
A549 NSCLC
  TGI: > 100 µM
DLD-1 colon
  TGI: > 100 µM
CCRF-CEM leukemia
  TGI: > 100 µM
DMS 273 small cell lung
  TGI: > 100 µM
SF-268 CNS
  TGI: > 100 µM
DMS 114 small cell lung
  TGI: > 100 µM

## O=C1OC(Cc2ccccc2)(N2CCCC2=O)C1c1ccccc1 (stereo not given)
UACC-62 melanoma
  TGI: > 100 µM
CAKI-1 renal
  TGI: > 100 µM
HT29 colon
  TGI: > 100 µM
A549 NSCLC
  TGI: > 100 µM
DLD-1 colon
  TGI: > 100 µM
SK-MEL-28 melanoma
  TGI: > 100 µM
CCRF-CEM leukemia
  TGI: > 100 µM
SF-268 CNS
  TGI: > 100 µM
DMS 114 small cell lung
  TGI: 81 µM

## O=C(NC1CCCCC1)NS(=O)(=O)c1ccc2c(c1)CCC2
UACC-62 melanoma
  TGI: > 100 µM
A549 NSCLC
  TGI: > 100 µM
DLD-1 colon
  TGI: > 100 µM
SK-MEL-28 melanoma
  TGI: > 100 µM
CCRF-CEM leukemia
  TGI: > 100 µM
SF-268 CNS
  TGI: > 100 µM
DMS 114 small cell lung
  TGI: > 100 µM

## Cc1[nH]c2ccccc2c1C(=O)CC1(O)C(=O)Nc2c(Cl)cc(Cl)cc21 (stereo not given)
CAKI-1 renal
  TGI: 98.3 µM
HT29 colon
  TGI: > 100 µM
A549 NSCLC
  TGI: 96.3 µM
DLD-1 colon
  TGI: > 100 µM
SK-MEL-28 melanoma
  TGI: 62 µM
CCRF-CEM leukemia
  TGI: 47.9 µM
DMS 273 small cell lung
  TGI: > 100 µM
SF-268 CNS
  TGI: 57.3 µM
DMS 114 small cell lung
  TGI: 44.9 µM

## Cc1ccc(/C=C/C(=O)C(C)(C)CN2CCCCC2)cc1
UACC-62 melanoma
  TGI: 30.3 µM
CAKI-1 renal
  TGI: 14.2 µM
HT29 colon
  TGI: 12 µM
A549 NSCLC
  TGI: 33.1 µM
SK-MEL-28 melanoma
  TGI: 33.4 µM
CCRF-CEM leukemia
  TGI: 10.4 µM
DMS 273 small cell lung
  TGI: 11.7 µM
SF-268 CNS
  TGI: 36.2 µM

## CCC(=O)C12OC3OC(C)(C)OC3C1OC(C)(C)O2 (stereo not given)
UACC-62 melanoma
  TGI: > 100 µM
CAKI-1 renal
  TGI: > 100 µM
HT29 colon
  TGI: > 100 µM
A549 NSCLC
  TGI: > 100 µM
DLD-1 colon
  TGI: > 100 µM
SK-MEL-28 melanoma
  TGI: > 100 µM
CCRF-CEM leukemia
  TGI: > 100 µM
DMS 273 small cell lung
  TGI: > 100 µM
SF-268 CNS
  TGI: > 100 µM

## N#CC(C#N)=C1NC(=O)CC(=O)N1
UACC-62 melanoma
  TGI: > 100 µM
CAKI-1 renal
  TGI: > 100 µM
HT29 colon
  TGI: > 100 µM
A549 NSCLC
  TGI: > 100 µM
DLD-1 colon
  TGI: > 100 µM
CCRF-CEM leukemia
  TGI: > 100 µM
DMS 273 small cell lung
  TGI: > 100 µM
SF-268 CNS
  TGI: > 100 µM
DMS 114 small cell lung
  TGI: > 100 µM

## Fc1ccc(C2SCc3nc4ccccc4n32)c(F)c1 (stereo not given)
UACC-62 melanoma
  TGI: > 100 µM
CAKI-1 renal
  TGI: > 100 µM
HT29 colon
  TGI: > 100 µM
A549 NSCLC
  TGI: > 100 µM
DLD-1 colon
  TGI: > 100 µM
CCRF-CEM leukemia
  TGI: > 100 µM
DMS 273 small cell lung
  TGI: > 100 µM
SF-268 CNS
  TGI: > 100 µM
DMS 114 small cell lung
  TGI: > 100 µM

## c1cnn2ncc(-c3ccnc(NCCCN4CCOCC4)n3)c2c1
UACC-62 melanoma
  GI50: 5.86 µM
  TGI: 18.4 µM
CAKI-1 renal
  GI50: 6.64 µM
  TGI: > 25 µM
HT29 colon
  GI50: 7.43 µM
  TGI: > 25 µM
A549 NSCLC
  GI50: 7.7 µM
  TGI: > 25 µM
HS 578T breast
  GI50: 6.2 µM
  TGI: > 23.1 µM
SK-MEL-28 melanoma
  GI50: 5.65 µM
  TGI: > 18 µM
CCRF-CEM leukemia
  GI50: 7.73 µM
  TGI: > 25 µM
SF-268 CNS
  GI50: 6.39 µM
  TGI: > 23.3 µM

## O=S(=O)(c1ccc(Cl)cc1)C(Cl)(Cl)Cl
UACC-62 melanoma
  GI50: 4.75 µM
  TGI: 25 µM
CAKI-1 renal
  GI50: 0.251 µM
  TGI: 0.879 µM
HT29 colon
  GI50: 2.85 µM
  TGI: 22.5 µM
A549 NSCLC
  GI50: 3.46 µM
  TGI: > 50 µM
HS 578T breast
  GI50: 2.27 µM
  TGI: 29.2 µM
SK-MEL-28 melanoma
  GI50: 4.47 µM
  TGI: 24 µM
CCRF-CEM leukemia
  GI50: 1.62 µM
  TGI: > 32.6 µM
SF-268 CNS
  GI50: 1.56 µM
  TGI: 20.6 µM

## CCCP1(=O)C=C(C)C(=C(Cl)Cl)C(C)=C1 (stereo not given)
UACC-62 melanoma
  TGI: > 100 µM
HT29 colon
  TGI: > 100 µM
A549 NSCLC
  TGI: > 100 µM
DLD-1 colon
  TGI: > 100 µM
SK-MEL-28 melanoma
  TGI: > 100 µM
CCRF-CEM leukemia
  TGI: > 100 µM
SF-268 CNS
  TGI: 88.3 µM
DMS 114 small cell lung
  TGI: > 100 µM

## CN1CCN(C(=O)c2cc(-c3ccc4ncnc(N5CCc6cc(F)c(Cl)cc65)c4c3)cnc2N)CC1
UACC-62 melanoma
  GI50: 0.177 µM
  TGI: 0.67 µM
CAKI-1 renal
  GI50: 0.165 µM
  TGI: 1.21 µM
HT29 colon
  GI50: 0.216 µM
  TGI: 4.57 µM
A549 NSCLC
  GI50: 0.194 µM
  TGI: 1.8 µM
HS 578T breast
  GI50: 0.116 µM
  TGI: 0.491 µM
SK-MEL-28 melanoma
  GI50: 0.24 µM
  TGI: 3.61 µM
CCRF-CEM leukemia
  GI50: 0.266 µM
  TGI: 4.92 µM
SF-268 CNS
  GI50: 0.216 µM
  TGI: 2.32 µM

## COc1ccc(-c2cc(-c3ccc(C)cc3)nc3nc(=S)[nH]c(N)c23)cc1
UACC-62 melanoma
  GI50: 20.6 µM
  TGI: 45.6 µM
CAKI-1 renal
  GI50: 23.2 µM
  TGI: 54.2 µM
HT29 colon
  GI50: 19.1 µM
  TGI: > 100 µM
A549 NSCLC
  GI50: 24.3 µM
  TGI: > 100 µM
HS 578T breast
  GI50: 17.9 µM
  TGI: 46.9 µM
SK-MEL-28 melanoma
  GI50: 40.6 µM
  TGI: > 100 µM
CCRF-CEM leukemia
  GI50: 18.8 µM
  TGI: 64.8 µM
SF-268 CNS
  GI50: 17.5 µM
  TGI: 35.5 µM

## O=c1[nH]c(=O)n(C2CC(O)C(COP(=O)(OCc3ccc([N+](=O)[O-])o3)N(CCCCCl)CC(O)CO)O2)cc1F (stereo not given)
UACC-62 melanoma
  GI50: 0.138 µM
CAKI-1 renal
  GI50: 0.191 µM
  TGI: 0.589 µM
HT29 colon
  GI50: 1.66 µM
  TGI: > 100 µM
A549 NSCLC
  GI50: < 0.01 µM
  TGI: > 100 µM
HS 578T breast
  GI50: 0.824 µM
  TGI: > 100 µM
SK-MEL-28 melanoma
  GI50: > 100 µM
  TGI: > 100 µM
CCRF-CEM leukemia
  GI50: 0.0102 µM
  TGI: > 100 µM
SF-268 CNS
  TGI: > 100 µM

## COc1ccc2c(c1)N(CCO)C1=C(C(=O)OC1)C2c1cccc(F)c1 (stereo not given)
UACC-62 melanoma
  GI50: 0.203 µM
  TGI: > 50 µM
CAKI-1 renal
  GI50: 0.393 µM
  TGI: > 50 µM
HT29 colon
  GI50: 0.23 µM
  TGI: > 19.8 µM
A549 NSCLC
  GI50: 0.746 µM
  TGI: > 50 µM
HS 578T breast
  GI50: 0.511 µM
  TGI: > 50 µM
SK-MEL-28 melanoma
  GI50: 5.59 µM
  TGI: > 50 µM
CCRF-CEM leukemia
  GI50: 0.43 µM
  TGI: > 50 µM
SF-268 CNS
  GI50: 0.764 µM
  TGI: > 50 µM

## COc1ccc(-c2cc(Cc3cccs3)c(=O)[nH]n2)cc1
UACC-62 melanoma
  TGI: > 100 µM
HT29 colon
  TGI: > 100 µM
A549 NSCLC
  TGI: > 100 µM
SK-MEL-28 melanoma
  TGI: > 100 µM
DMS 273 small cell lung
  TGI: > 100 µM
SF-268 CNS
  TGI: > 100 µM
DMS 114 small cell lung
  TGI: > 100 µM

## OCC12C3C4C5C3C1C5C42 (stereo not given)
UACC-62 melanoma
  TGI: > 100 µM
CAKI-1 renal
  TGI: > 100 µM
HT29 colon
  TGI: > 100 µM
A549 NSCLC
  TGI: > 100 µM
HS 578T breast
  TGI: > 100 µM
SK-MEL-28 melanoma
  TGI: > 100 µM
CCRF-CEM leukemia
  TGI: > 100 µM
SF-268 CNS
  TGI: > 100 µM
